This is an account of results in PMC2939296 (Bioorganic & medicinal chemistry letters, 2010).

Test [1] addresses T1, Human MIF (Homo sapiens, UniProt P14174).
T1 sequence (P14174 2-115 limits assumed): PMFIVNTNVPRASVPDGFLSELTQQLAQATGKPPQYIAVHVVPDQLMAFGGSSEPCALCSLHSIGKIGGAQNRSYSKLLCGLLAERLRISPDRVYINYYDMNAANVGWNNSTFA
The note with it: cited from earlier work.

The target of test [2] is T2, rh-MIF (Homo sapiens, UniProt P14174).
T2 sequence (P14174 2-115 limits assumed): T1 sequence (P14174 2-115 limits assumed)
The experiment in a line: Mass spectrometry. The note with it: 30 μM rh-MIF plus 30 μM compound, 1 hr at room temperature in the dark.

The target in test [3] is T3, MIF-CD74 (Homo sapiens, UniProt P14174).
T3 sequence (P14174 2-115 limits assumed): T1 sequence (P14174 2-115 limits assumed)
The following applies: cited from earlier work.

Structures are written as SMILES.

As for `Cc1ccc2oc(=O)n(Cc3ccccc3)c2c1` [Cp 1], the “mode of inhibition of tautomerase activity (Michaelis-Menten analyses)” value in test [1] is recorded as “competitive inhibitor”.

As to `Ic1cc(-c2ccccc2)ncn1` [Cp 4-IPP, 4-iodo-6-phenylpyrimidine], in test [2], the “covalent adduct with MIF by mass spectrometry” value is listed as “appearance of the covalent adduct at the mass of MIF + ca. 155 Da”.

`Cc1ccc2oc(=O)n(Cc3cccc(O)c3)c2c1` [Cp 5]: in test [2], the “covalent adduct with MIF by mass spectrometry” value is “no additional peaks emerged”.

For the compound `CC(=O)N=C1C=CC(=O)C=C1` [NAPQI], the “effect on MIF receptor binding activity” value in test [3] was “decreases”. Besides, in test [1], the “effect on MIF tautomerase activity” value is reported as “decreases”.
